From paper PMC12153055 (Organometallics, 2025)

How the values were obtained:
[1] = test system: 5′-biotinylated dsDNA oligomer (DNA, duplex) TGTAATCGTAGGTTGGTCCCATCACCCACC/GGTGGGTGATGGGACCAACCTACGATTACA; assay: SPR biosensor kinetics, immobilised DNA; conditions: PBS buffer; monoexponential fit, single site
[2] = test system: MCF7-CR cisplatin-resistant breast cancer cells; assay: MTT cytotoxicity assay, MCF7CR cells; format: cell-based, human; conditions: 72 h exposure, mean ± SD of three experiments
Description: (§1) The stability of [1]-Cl-[4]-Cl was evaluated in aqueous phosphate-buffered solution (PBS, pH 7.4) using UV–visible spectroscopy. […] The cytotoxicity of the compounds was measured according to a standard MTT assay against human breast cancer (MCF7 and MCF7CR) and ovarian cancer (A2780 and A2780cis) cell lines, and also nontumorigenic MCF10A and human embryonic kidney HEK293T cells (Table ).
(§2) All cell lines were grown in a humidified 5% CO2 environment at 37 °C in dedicated media. Growth media comprised minimum essential medium (MEM) supplemented with 10% FBS, 1% sodium pyruvate, antibiotics, and antimycotic agents for MCF7. MCF10A cells were cultured in a DMEM/F12 Ham’s mixture supplemented with 5% equine serum, 20 ng/mL EGF, 10 μg/mL insulin, […], antibiotics, and antimycotics. MCF7-CR cells were grown in minimum essential medium (MEM), 10% FBS supplemented with 0.1 mg/mL cisplatin, sodium pyruvate, antibiotics, and antimycotics. A2780 and A2780cis cells were cultured in RPMI 1640 GlutaMAX, and HEK293T cells were cultured in DMEM GlutaMAX medium containing 10% heat-inactivated FBS and antibiotics. The effect exerted on cell viability by the compounds was determined using the 3-(4,5-dimethylthiazol-2-yl)-2,5-diphenyltetrazolium bromide (MTT) assay. After individual treatments with 0–100 μM of the compound for 72 h, MTT was added to the culture media at a final concentration of 0.5 mg/mL and incubated for 2 h at 37 °C. Cisplatin was used as a positive control. The medium was replaced with 100 μL of DMSO, and after 10 min, the optical density was recorded at 550 nm on a microplate reader. At least six cultures were used for each data point. Chemicals (Merck-Sigma, Milan, Italy) and plasticware (Corning, Milan, Italy) were cell culture grade.

[3] = test system: A2780cis cisplatin-resistant ovarian cancer cells; assay: MTT cytotoxicity assay, A2780cis cells; format: cell-based, human; conditions: 72 h exposure, mean ± SD of three experiments
Description: as §1, §2

[4] = test system: A2780 human ovarian carcinoma cells; assay: MTT cytotoxicity assay, A2780 cells; format: cell-based; conditions: for IC50: MTT, 72 h exposure, mean ± SD of three experiments; for SI A2780 HEK293T: selectivity index, values equal IC50 HEK293T / IC50 A2780
Description: as §1, §2

[5] = test system: HEK293T human embryonic kidney cells; assay: MTT cytotoxicity assay, HEK293T cells; format: cell-based; conditions: 72 h exposure, mean ± SD of three experiments
Description: as §1, §2

[6] = test system: MCF7 human breast adenocarcinoma cells; assay: MTT cytotoxicity assay, MCF7 cells; format: cell-based; conditions: for IC50: MTT, 72 h exposure, mean ± SD of three experiments; for SI MCF7 MCF10A: selectivity index, values equal IC50 MCF10A / IC50 MCF7
Description: as §1, §2

[7] = target: 20S proteasome PGPH (caspase-like) activity (Homo sapiens, UniProt P28072); assay: Isolated 20S proteasome, peptidyl glutamyl peptide hydrolase (caspase-like) activity (Z-Leu-Leu-Glu-AMC); format: biochemical; conditions: 0–100 μM, 1 h, 37 °C, pH 8.0
Description: (§3) Proteasome inhibition by the compounds was evaluated with respect to three major activities of the 20S proteasome, namely, chymotrypsin-like, trypsin-like, and caspase-like activities.
(§4) The effect of the compounds on the activity of the isolated 20S proteasome was tested using specific synthetic fluorogenic peptide substrates (Suc-Leu-Leu-Val-Tyr-AMC, Z-Leu-Ser-Thr-Arg-AMC, and Z-Leu-Leu-Glu-AMC for chymotrypsin-like, trypsin-like, and peptidyl glutamyl peptide hydrolase activity, respectively) as reported elsewhere. Briefly, individual mixtures consisting of the compounds (0–100 μM), 1 μg of isolated 20S proteasome, the specific substrate, and 50 mM Tris–HCl pH 8.0 up to a final volume of 100 μL were incubated at 37 °C, and after 1 h, the fluorescence measurements of the hydrolyzed AMC were recorded on a SpectraMax Gemini XPS microplate reader (λexc = 365 nm, λem = 449 nm).

[8] = test system: p62; assay: Western blot quantification of p62 in MCF7 cells; format: cell-based, human; conditions: 10 μM, 24 h
Description: Since no significant correlation emerged among cytotoxicity, DNA binding affinity, and proteasome inhibition, the effects of the treatment on the expression levels of p62 were evaluated. p62 is a multifunctional binding protein that is involved in signaling pathways of many cellular activities, including autophagy, whose abnormal expression is associated with malignancies, breast cancer in particular. […] This effect was more evident for the free ligand, in agreement with its higher cytotoxicity to breast cancer cells compared with that of the corresponding ruthenium complex (Figure ).
4 Representative autoradiographs (upper panel) and densitometric analyses (lower panel) of p62 levels in MCF7 cells treated with 10 μM of HZPbdcurc and [3]-Cl for 24 h (*p < 0.01 compared with the control; #p < 0.01 compared with [3]-Cl).
Semiquantitative analysis of p62 was performed by Western blotting upon individual 24 h treatments of MCF-7 cells with 10 μM of HZPbdcurc or [Ru(p-cym)(HZPbdcurc)-Cl]-Cl. Treated cells were lysed, and 15 μg of total protein was electrophoresed on 12% SDS-PAGE, then protein bands were electroblotted onto PVDF membranes (Millipore–Milan, Italy). After incubation with anti-p62 monoclonal antibody (Merck Sigma–Milan, Italy), the bands were immunodetected on a ChemiDoc MP imaging system (Bio-Rad - Milan, Italy). […] Western blot results were analyzed using Fiji software.

[9] = test system: dsDNA oligomer; assay: SPR biosensor binding to surface-anchored dsDNA oligomer; conditions: surface-blocked DNA oligomer; for Kd: equilibrium dissociation constant
Description: The DNA binding ability of curcuminoid ligands and their complexes was evaluated by using a Surface plasmon resonance (SPR) biosensor. The monoexponential nature of binding kinetics for all the compounds is consistent with the presence of a single high-affinity site on DNA (Figure ).
The binding kinetics/affinities of the molecules of interest for DNA were studied according to a previously described biosensor-based method. Briefly, streptavidin was anchored to a carboxylate surface via EDC/NHS chemistry, and 5′-biotinylated dsDNA oligomer (sequence: 3′-[…]-5′) was coupled to surface-blocked streptavidin. Compounds were independently added to the DNA-coated surface at different concentrations, each time following binding kinetics up to equilibrium. PBS buffer was used for both the dissociation and the regeneration steps. Experimental data were fitted to both mono- and biexponential models, and the validity of each model was assessed by a standard F-test procedure. The binding sites on DNA were mapped according to independent competitive binding assays individually using a minor groove binder (GelRed) and a major groove binder (methyl green), respectively. Briefly, GelRed displacement was monitored by comparing the emission spectra of solutions containing different concentrations of curcuminoid-like ligands/complexes (0–100 μM), 20 μM DNA, and GelRed (10 μM) in 10 mM phosphate buffer, pH 7.4. Similarly, methyl green displacement assay was performed by monitoring the absorbance at 630 nm upon addition of candidate competitors (0–100 μM), 100 μM DNA, and methyl green (10 μM) in 50 mM Tris–HCl buffer and 7.5 mM MgSO4, pH 7.5.

[10] = target: 20S proteasome trypsin-like activity (Homo sapiens, UniProt Q99436); assay: Isolated 20S proteasome, trypsin-like activity (Z-Leu-Ser-Thr-Arg-AMC); format: biochemical; conditions: for IC50: 0–100 μM, 1 h, 37 °C, pH 8.0
Description: as §3, §4

[11] = target: 20S proteasome chymotrypsin-like activity (Homo sapiens, UniProt P28074); assay: Isolated 20S proteasome, chymotrypsin-like activity (Suc-Leu-Leu-Val-Tyr-AMC); format: biochemical; conditions: 0–100 μM, 1 h, 37 °C, pH 8.0
Description: as §3, §4

[12] = test system: MCF10A nontumorigenic cells; assay: MTT cytotoxicity assay, MCF10A cells; format: cell-based, human; conditions: 72 h exposure, mean ± SD of three experiments
Description: as §1, §2

[13] = Solubility in water (qualitative); format: physicochemical

KD [1] | IC50 [7] | kass [9] | kdiss [9] | Kd [9] | IC50 [10] | IC50 [11] | solubility in water [13] | SMILES | IC50 [2] | IC50 [3] | IC50 [4] | IC50 [5] | IC50 [6] | SI A2780 HEK293T [4] | further results
4.5 ± 2.7 µM |  |  |  |  |  |  |  | COc1cc(/C=C/c2cc(/C=C/c3ccc(O)c(OC)c3)n(-c3ccccn3)n2)ccc1O |  |  |  |  |  |  | 
4.2 ± 1.8 µM |  |  |  |  |  |  |  | COc1cc(/C=C/c2cc(/C=C/c3ccc(O)c(OC)c3)n(-c3ccccn3)n2)ccc1O.Cc1ccc(C(C)C)cc1.[Cl-].[Os+2] |  |  |  |  |  |  | 
0.29 ± 0.14 µM |  |  |  |  |  |  |  | COc1cc(/C=C/c2cc(/C=C/c3ccc(O)c(OC)c3)n(-c3ccccn3)n2)ccc1O.Cc1ccc(C(C)C)cc1.[Cl-].[Ru+2] |  |  |  |  |  |  | 
39.2 ± 17.0 µM |  |  |  |  |  |  |  | Cc1ccc(C(C)C)cc1.Oc1ccc(/C=C/c2cc(/C=C/c3ccc(O)cc3)n(-c3ccccn3)n2)cc1.[Cl-].[Os+2] |  |  |  |  |  |  | 
2.2 ± 1.5 µM |  |  |  |  |  |  |  | Cc1ccc(C(C)C)cc1.Oc1ccc(/C=C/c2cc(/C=C/c3ccc(O)cc3)n(-c3ccccn3)n2)cc1.[Cl-].[Ru+2] |  |  |  |  |  |  | 
17.0 ± 7.3 µM |  |  |  |  |  |  |  | Oc1ccc(/C=C/c2cc(/C=C/c3ccc(O)cc3)n(-c3ccccn3)n2)cc1 |  |  |  |  |  |  | 
 |  |  |  |  |  |  |  | N.N.[Cl][Pt][Cl] [Cisplatin, reference compound] | 49.1 ± 7 µM | 7 ± 1 µM | 0.25 ± 0.02 µM | 2.8 ± 0.5 µM | 4.2 ± 2.3 µM |  | 
 | > 100 µM | 1808 ± 740 M^–1s^–1 | 0.031 ± 0.004 s^–1 | 17 ± 7.3 µM | > 100 µM | > 100 µM |  | Oc1ccc(/C=C/c2cc(/C=C/c3ccc(O)cc3)n(-c3ccccn3)n2)cc1 [HZPbdcurc, 4,4′-((1E,1′E)-(1-(pyridin-2-yl)-1H-pyrazole-3,5-diyl)bis(ethene-2,1-diyl))diphenol] |  |  |  |  |  | 2.13 | p62 levels [8]: an increase in the levels of p62 was observed; IC50 ([2]; Homo sapiens): 25.9 ± 11 µM; IC50 ([3]; Homo sapiens, A2780cis): 11.1 ± 2.9 µM; IC50 ([4]; Homo sapiens, A2780): 8 ± 1.2 µM; IC50 ([12]; Homo sapiens, MCF-10A): 9.7 ± 6.5 µM; IC50 ([5]; Homo sapiens, HEK-293T): 17 ± 0.9 µM; IC50 ([6]; Homo sapiens, MCF7): 35.1 ± 3 µM; SI MCF7 MCF10A [6]: 0.28
 | > 100 µM | 2994 ± 1142 M^–1s^–1 | 0.013 ± 0.009 s^–1 | 4.5 ± 2.7 µM | > 100 µM | > 100 µM | insoluble in H2O | COc1cc(/C=C/c2cc(/C=C/c3ccc(O)c(OC)c3)n(-c3ccccn3)n2)ccc1O [HZPcurc, 4,4′-((1E,1′E)-(1-(pyridin-2-yl)-1H-pyrazole-3,5-diyl)bis(ethene-2,1-diyl))bis(2-methoxyphenol)] |  |  |  |  |  | 3.10 | IC50 ([2]; Homo sapiens): 17.7 ± 3.6 µM; IC50 ([3]; Homo sapiens, A2780cis): 6.7 ± 0.6 µM; IC50 ([4]; Homo sapiens, A2780): 5.3 ± 0.4 µM; IC50 ([12]; Homo sapiens, MCF-10A): 7 ± 4.5 µM; IC50 ([5]; Homo sapiens, HEK-293T): 16.4 ± 0.6 µM; IC50 ([6]; Homo sapiens, MCF7): 23 ± 6 µM; SI MCF7 MCF10A [6]: 0.30
 | > 100 µM | 32082 ± 773 M^–1s^–1 | 0.009 ± 0.004 s^–1 | 0.29 ± 0.14 µM | 63 ± 7 µM | > 100 µM | soluble in polar solvents, including H2O | COc1cc(/C=C/c2cc(/C=C/c3ccc(O)c(OC)c3)n(-c3ccccn3)n2)ccc1O.Cc1ccc(C(C)C)cc1.[Cl-].[Cl][Ru+] [[1]Cl, [Ru(p-cym)(HZPcurc)Cl]Cl] | 41 ± 10 µM | 6.6 ± 0.9 µM | 4.6 ± 0.3 µM | 25 ± 1 µM | 49.2 ± 5 µM | 5.43 | inhibition of the trypsin-like activity (in words) [10]: inhibition of the trypsin-like activity; IC50 [12]: 31.7 ± 10 µM; SI MCF7 MCF10A [6]: 0.64
 | > 100 µM | 1156 ± 179 M^–1s^–1 | 0.005 ± 0.002 s^–1 | 4.2 ± 1.8 µM | 51 ± 13 µM | 84 ± 60 µM | completely soluble | COc1cc(/C=C/c2cc(/C=C/c3ccc(O)c(OC)c3)n(-c3ccccn3)n2)ccc1O.Cc1ccc(C(C)C)cc1.[Cl-].[Cl][Os+] [[2]Cl, [Os(p-cym)(HZPcurc)Cl]Cl] | > 100 µM | 12.1 ± 0.6 µM | 6.3 ± 0.5 µM | 25 ± 8 µM | > 100 µM | 3.97 | inhibition of the trypsin-like activity (in words) [10]: inhibition of the trypsin-like activity; IC50 [12]: 25.6 ± 15 µM
 | > 100 µM | 266 ± 102 M^–1s^–1 | 0.010 ± 0.002 s^–1 | 39.2 ± 17 µM | 61 ± 44 µM | 98 ± 50 µM | partly soluble in H2O | Cc1ccc(C(C)C)cc1.Oc1ccc(/C=C/c2cc(/C=C/c3ccc(O)cc3)n(-c3ccccn3)n2)cc1.[Cl-].[Cl][Os+] [[4]Cl, [Os(p-cym)(HZPbdcurc)Cl]Cl] | > 100 µM | 5.4 ± 0.3 µM | 2.4 ± 0.4 µM | 32 ± 2 µM | > 100 µM | 13.33 | inhibition of the trypsin-like activity (in words) [10]: inhibition of the trypsin-like activity; IC50 [12]: 25.8 ± 10 µM
